Measured values from PMC8225959, “Clickable Radiocomplexes With Trivalent Radiometals for Cancer Theranostics: In vitro and in vivo Studies” (Frontiers in Medicine, 2021).

What was measured:
PC3 xenografts = assay: Ex vivo biodistribution of [90Y]Y-DOTA-Tz in mice bearing PC3 xenografts; conditions: PC3 xenograft mice
Excerpt: Currently, we are investigating the application of click chemistry using biomolecules that target prostate cancer. Therefore, since a non-specific tumor uptake might interfere with the specificity of the pre-targeting approach, we have performed in vivo studies of [^90Y]Y-DOTA-Tz in mice bearing PC3 xenografts to assess the possible non-specific uptake of the clickable radiocomplex in the tumor and in the tumor microenvironment. […] This type of optical imaging offers a high spatial resolution, and despite a limited penetration depth allows to image ^90Y, which is not easily feasible using PET or SPECT imaging ([32]). […] At the selected time points the majority of the compound was retrieved in the urine, with 88 and 96% of the I.D. excreted 1 and 2 h post-injection, respectively. page 9: from whole animal body. Blood samples were taken by cardiac puncture at sacrifice. […] The animals were kept under […] volume of approximate 390 ± 190 mm3. […] […] carried out on groups of 8 mice (n = 4). […] The animals were weighed and dissected.

[1] = Stability of the [90Y]Y-DOTA-Tz preparation (HPLC, radiolysis); type: physicochemical
Method: The radiolabelling with ^90Y was performed following the same procedure previously optimized for ^111In, using a buffer of 0.1 M ammonium acetate at pH 7 and heating the mixture at 80°C for 15 min. The DOTA-Tz chelator was added to a final concentration of 400–500 μM to yield [^90Y]Y-DOTA-Tz with specific activities up to 3.3 MBq/nmol and radiochemical yields above 90% (Supplementary Figure 4A). The radiocomplex [^90Y]Y-DOTA-Tz was synthesized with ~130 MBq of [^90Y]YCl3 and obtained in very high specific activity, after separation from the non-labeled DOTA-Tz chelator. The radiocomplex was recovered into phosphate buffer at pH 8 to neutralize the residual TFA from the HPLC mobile phase before its use in future biological studies. […] In order to stabilize the [^90Y]Y-DOTA-Tz preparation, a suitable ratio between the volume of phosphate buffer solution at pH 8 to neutralize the TFA from the HPLC purification and ascorbic acid as a radiolytic stabilizer had to be optimized. In initial experiments, the use of ascorbic acid as a buffer in the radiolabelling procedure led to the degradation of the tetrazine moiety. Similar effect was seen when the ascorbic acid solution (50 mg/mL) was added to the solution after labeling. […]

PC3 tumor = assay: Cerenkov luminescence imaging of PC3 tumor-bearing mice pretargeted with TCO-PEG4-AR then [90Y]Y-DOTA-Tz; type: in vivo; conditions: 1 nmol TCO-PEG4-AR, radiocomplex after 4 h
Method: The Cerenkov Luminescence Imaging of the prostate cancer PC3 tumor-bearing mice was carried out at different time points (15 min, 1 and 2 h) after intravenous injection of [^90Y]Y-DOTA-Tz. […] Thereafter, the CLI imaging of the PC3 tumor-bearing mice was carried out at different time points (15 min, 1 h). The images were obtained using PhotonIMAGER™ (BioSpace Lab).

[2] = 1 h p.i., listed as [^90Y]Y-DOTA-Tz
[3] = 2 h p.i., listed as [^90Y]Y-DOTA-Tz

## O=C([O-])CN1CCN(CC(=O)[O-])CCN(CC(=O)NCc2ccc(-c3nncnn3)cc2)CCN(CC(=O)[O-])CC1.[90Y+3] [[90Y]Y-DOTA-Tz]
PC3 xenografts; 1 h p.i.
  Biodistribution: Blood: 1.59 ± 0.62 % I.D./g
  Biodistribution: Bone: 1.04 ± 0.25 % I.D./g
  Biodistribution: Intestine: 0.41 ± 0.2 % I.D./g
  Biodistribution: Kidneys: 3.65 ± 0.49 % I.D./g
  Biodistribution: Liver: 0.76 ± 0.07 % I.D./g
  Biodistribution: Lung: 1.24 ± 0.32 % I.D./g
  Biodistribution: Muscle: 0.5 ± 0.2 % I.D./g
  Biodistribution: Pancreas: 0.7 ± 0.32 % I.D./g
  Biodistribution: Salivary Gland: 0.68 ± 0.12 % I.D./g
  Biodistribution: Spleen: 1 ± 0.27 % I.D./g
  Biodistribution: Stomach: 0.65 ± 0.33 % I.D./g
  Biodistribution: Tumour: 1.0 ± 0.4 % I.D./g
PC3 xenografts; [2]
  Biodistribution: Blood: 1.59 % I.D./g
  Biodistribution: Kidneys: 3.6 % I.D./g
PC3 xenografts; 2 h p.i.
  Biodistribution: Blood: 0.22 ± 0.01 % I.D./g
  Biodistribution: Bone: 0.54 ± 0.04 % I.D./g
  Biodistribution: Intestine: 0.17 ± 0.05 % I.D./g
  Biodistribution: Kidneys: 2.54 ± 0.71 % I.D./g
  Biodistribution: Liver: 0.49 ± 0.15 % I.D./g
  Biodistribution: Lung: 0.31 ± 0.04 % I.D./g
  Biodistribution: Muscle: 0.15 ± 0.01 % I.D./g
  Biodistribution: Pancreas: 0.27 ± 0.12 % I.D./g
  Biodistribution: Salivary Gland: 0.17 ± 0.02 % I.D./g
  Biodistribution: Spleen: 0.33 ± 0.16 % I.D./g
  Biodistribution: Stomach: 0.23 ± 0.08 % I.D./g
  Biodistribution: Tumour: 0.37 ± 0.17 % I.D./g
PC3 xenografts; [3]
  Biodistribution: Blood: 0.22 % I.D./g
  Biodistribution: Kidneys: 2.5 % I.D./g
  Biodistribution: Tumour: 0.37 % I.D./g
[1]; 3 μL ascorbic acid (50 mg/mL) and 147 μL phosphate buffer pH 8, up to 20 h after the radiolabelling
  in vitro stability of the preparation: excellent in vitro stability
[1]; recovered into phosphate buffer pH 8, no stabilizer, after 2 h at room temperature
  stability of the preparation: high degradation
PC3 tumor; images at 15 min p.i.
  Cerenkov imaging: tumor uptake: some tumor uptake
PC3 tumor; images at 1 h after the injection
  Cerenkov imaging: activity localization: majority of the activity localized in the kidneys
